Measured values as given in BindingDB's records for doi:10.1021/acs.jmedchem.8b00931 (Umr 7273 Cnrs, 2018).
pEC50: −log10 of the molar value.

How the values were obtained:
[1] = Inhibition of Rhinovirus B14 capsid infected in human HeLa Rh cells assessed as reduction in virus-induced cytopathic effect after 3 days by MTS assay
[2] = Inhibition of Rhinovirus A02 capsid infected in human HeLa Rh cells assessed as reduction in virus-induced cytopathic effect after 3 days by MTS assay
[3] = Inhibition of Rhinovirus A89 capsid infected in human HeLa Rh cells assessed as reduction in virus-induced cytopathic effect after 3 days by MTS assay
[4] = Inhibition of Rhinovirus A85 capsid infected in human HeLa Rh cells assessed as reduction in virus-induced cytopathic effect after 3 days by MTS assay
[5] = Inhibition of Rhinovirus A08 capsid infected in human HeLa Rh cells assessed as reduction in virus-induced cytopathic effect after 3 days by MTS assay
[6] = Inhibition of Rhinovirus A28 capsid infected in human HeLa Rh cells assessed as reduction in virus-induced cytopathic effect after 3 days by MTS assay
[7] = Inhibition of Rhinovirus B42 capsid infected in human HeLa Rh cells assessed as reduction in virus-induced cytopathic effect after 3 days by MTS assay
[8] = Inhibition of Rhinovirus B70 capsid infected in human HeLa Rh cells assessed as reduction in virus-induced cytopathic effect after 3 days by MTS assay

Molecule Cc1noc(C)c1-c1ccc(CC(O)c2ccc(-n3cncn3)cc2)c([N+](=O)[O-])c1 (stereo not given) has a pEC50 [1] of under 3.61.

With O=[N+]([O-])c1cc(Cl)ccc1CC(O)c1ccc(-n2cccn2)cc1 (stereo not given) the pEC50 [1] was 6.89.

Molecule Cn1cc(-c2ccc(CC(O)c3ccc(-n4cncn4)cc3)c([N+](=O)[O-])c2)cn1 (stereo not given) has a pEC50 [1] of 6.74.

Cn1cc(-c2ccc(CC(O)c3ccc(-n4cccn4)cc3)c([N+](=O)[O-])c2)cn1 (stereo not given) showed a pEC50 [1] of 6.70.

In the case of O=[N+]([O-])c1cc(Br)ccc1CC(O)c1ccc(-n2cccn2)cc1 (stereo not given), the pEC50 [1] was 6.60.

For Cn1cc(-c2ccc(C[C@H](O)c3ccc(-n4cccn4)cc3)c([N+](=O)[O-])c2)cn1, the pEC50 [1] was 7.46, the pEC50 [2] was under 3.89 and the pEC50 [3] was 5.62. The pEC50 [4] was under 3.89, the pEC50 [5] was under 3.89 and the pEC50 [6] was under 3.89. The pEC50 [7] was under 3.89 and the pEC50 [8] was 7.77.

For O=[N+]([O-])c1cc(F)ccc1CC(O)c1ccc(-n2cccn2)cc1 (stereo not given), the pEC50 [1] was 5.06.

For Cn1cc(-c2ccc(C[C@H](O)c3ccc(-n4cncn4)cc3)c([N+](=O)[O-])c2)cn1, the pEC50 [1] was 7.22, the pEC50 [2] was under 3.89 and the pEC50 [3] was under 3.89. It also gave a pEC50 [4] of under 3.89, a pEC50 [5] of under 3.89 and a pEC50 [6] of under 3.89. For the same molecule, the pEC50 [7] was under 3.89 and the pEC50 [8] was 7.30.

Molecule Cn1cc(-c2ccc(C[C@@H](O)c3ccc(-n4cncn4)cc3)c([N+](=O)[O-])c2)cn1 has a pEC50 [1] of under 3.89, a pEC50 [2] of under 3.89 and a pEC50 [3] of 5.82. It also gave a pEC50 [4] of under 3.89, a pEC50 [5] of under 3.89 and a pEC50 [6] of under 3.89. For the same molecule, the pEC50 [7] was under 3.89 and the pEC50 [8] was under 4.70.

For O=[N+]([O-])c1cc(-c2ccco2)ccc1CC(O)c1ccc(-c2ccncc2)cc1 (stereo not given), the pEC50 [1] was 5.92.

Molecule O=[N+]([O-])c1cc(Br)ccc1CC(O)c1ccc(-n2cncn2)cc1 (stereo not given) has a pEC50 [1] of 6.60.

In the case of O=[N+]([O-])c1cc(-c2cncs2)ccc1CC(O)c1ccc(-n2cncn2)cc1 (stereo not given), the pEC50 [1] was 6.40.

With Cc1cc(CCCOc2c(C)cc(-c3noc(C(F)(F)F)n3)cc2C)on1 [3-(3,5-dimethyl-4-(3-(3-methylisoxazol-5-yl)propoxy)phenyl)-5-(trifluoromethyl)-1,2,4-oxadiazole] the pEC50 [1] was 7.52, the pEC50 [2] was 7.82 and the pEC50 [3] was 8.40. It also gave a pEC50 [4] of 7.96, a pEC50 [5] of 6.31 and a pEC50 [6] of 7.82. The pEC50 [7] was under 3.89 and the pEC50 [8] was 6.78.

Work on O=[N+]([O-])c1cc(-c2cccs2)ccc1CC(O)c1ccc(-c2ccncc2)cc1 (stereo not given) yielded a pEC50 [1] of 5.89.

With Cn1nc(C(F)(F)F)cc1-c1ccc(CC(O)c2ccc(-n3cccn3)cc2)c([N+](=O)[O-])c1 (stereo not given) the pEC50 [1] was 6.30.

Work on Cc1noc(C)c1-c1ccc(CC(O)c2ccc(-n3cccn3)cc2)c([N+](=O)[O-])c1 (stereo not given) yielded a pEC50 [1] of under 3.61.

COC(=O)c1ccc(CC(O)c2ccc(-c3ccncc3)cc2)c([N+](=O)[O-])c1 (stereo not given) gave a pEC50 [1] of 5.19.

With Cn1cc(-c2ccc(C[C@@H](O)c3ccc(-n4cccn4)cc3)c([N+](=O)[O-])c2)cn1 the pEC50 [1] was 5.60, the pEC50 [2] was under 3.89 and the pEC50 [3] was 6.72. The pEC50 [4] was under 3.89, the pEC50 [5] was under 3.89 and the pEC50 [6] was under 3.89. It also gave a pEC50 [7] of under 3.89 and a pEC50 [8] of under 3.89.

Work on Cn1nc(C(F)(F)F)cc1-c1ccc(CC(O)c2ccc(-c3ccncc3)cc2)c([N+](=O)[O-])c1 (stereo not given) yielded a pEC50 [1] of 6.00.

Work on O=[N+]([O-])c1cc(Br)ccc1CC(O)c1ccc(-c2ccncc2)cc1 (stereo not given) yielded a pEC50 [1] of 6.23.
